Experiments:
PRMT5 = target: T1, PRMT5 (Homo sapiens, UniProt O14744); experiment: PRMT5 Enzymatic Inhibition Assay (chemiluminescence immunoassay of histone H4 methylation); type: biochemical; details: 1 hour at room temperature; 10 μM to 1 nM
T1 construct: purchased BPS Biosciences 52002L
Protocol: A chemiluminescence immunoassay (CLIA) measuring the amount of PRMT5-mediated histone methylation was performed in a 96-well plate format according to the manufacturer's protocol (BPS Biosciences, Cat #52002L). A 96-well plate precoated with histone H4 peptide was rehydrated prior to use. A master mix containing PRMT5 substrate S-adenosylmethionine, reaction buffer, and purified PRMT5 enzyme was added to create reaction-competent wells. Wells lacking either S-adenosylmethionine substrate or PRMT5 enzyme were created as negative controls. 10 test concentrations, ranging from 100 μM to 10 nM, of the test compound were prepared using a 1:3 serial dilution in dH2O. 5 μL of each test concentration was added into a reaction-competent well. 5 μL of a 1% DMSO aqueous solution lacking inhibitor was added into negative control wells and into a reaction-competent well, creating a positive control well. The final reaction volume in each well was 50 μL, and the final concentration of the test compound in each well ranged from 10 μM to 1 nM. A known inhibitor of PRMT5, EPZ015666, was tested in parallel reaction wells as an assay validation control. The 96-well plate was incubated for 1 hour at room temperature.
Upon completion of the incubation, the reaction supernatant in each well was discarded. Wells were washed with 1×TBST and incubated in blocking buffer for 1 hour. The wells were incubated with a primary antibody recognizing methylated Arg3 residues on Histone H4 for 1 hour. The wells were washed with 1×TBST again and subsequently incubated with an HRP-conjugated secondary antibody for 30 minutes. The wells were washed again with 1×TBST, and equal parts of the chemiluminescence reagents were added into each well. Quantification of luminescence was measured in a plate reader.
Luminescence values were normalized against the positive and negative controls to convert the data into % PRMT5 activity. An inhibitor concentration-dependent curve was plotted against % PRMT5 activity and am IC50 value was determined for each compound.

[1] = system: drug-sensitive cell lines of Table 4; experiment: Cell Line Growth Retardation Assay, average maximum effect in sensitive cohort; type: cell-based, Human; details: average maximum growth inhibition over sensitive cohort of Table 4; 6 days; up to 1 μM
Protocol: (§1) Cells were seeded at densities of 1,000-5,000 cells per well in 48-well tissue culture plates. After a 24 h rest period, cells were treated with compound at 1 μM, 0.2 μM, 0.04 μM, 0.008 μM, 0.0016 μM, and 0.00032 μM. A group of cells were treated with the vehicle in which the compound was prepared and served as a control. Prior to treatment, cells were counted and this count was used as a baseline for the calculation of growth inhibition. The cells were grown in the presence of compounds for 6 days and were counted on day 6. All cell counting was performed using a Synentec Cellavista plate imager. Growth inhibition was calculated as a ratio of cell population doublings in the presence of compound versus the absence of compound and expressed as the maximum percentage growth inhibition achieved across the range of tested concentrations of the compound (“maximum effect” or “ME”) calculated by fitting curves to data points from each dose-response assay using the Proc NLIN function in SAS for Windows version 9.2 (SAS Institute, Inc.).
(§2) Human cancer cell lines were grouped as “sensitive” or “resistant” to PRMT5 inhibition based on whether their growth was retarded by JNJ-64619178 (i.e., (1S,2R,3R,5R)-3-(2-(2-amino-3-bromoquinolin-7-yl)ethyl)-5-(4-amino-7H-pyrrolo[2,3-d]pyrimidin-7-yl)cyclopentane-1,2-diol) (data not shown; see Table 4). These sensitive and resistant cohorts were interrogated for response to each compound, and ME was calculated for each cell line using the same technique described above. Average MEs for the sensitive and resistant cohorts were calculated as arithmetic means of the group. “A” represents a percent of maximum effect of 60% or greater, “B” represents a percent of maximum effect of 30% to 59%, and “C” represents a percent of maximum effect of 29% or lower.

[2] = system: drug-resistant cell lines of Table 4; experiment: Cell Line Growth Retardation Assay, average maximum effect in resistant cohort; type: cell-based, Human; details: average maximum growth inhibition over resistant cohort of Table 4; 6 days; up to 1 μM
Protocol: as §1, §2

[3] = Caco-2 Assay (Papp A to B); type: in vitro ADME; details: human, pH 7.4
Protocol: The degree of bi-directional human intestinal permeability for compounds was estimated using a Caco-2 cell permeability assay. Caco-2 cells were seeded onto polyethylene membranes in 96-well plates. The growth medium was refreshed every 4 to 5 days until cells formed a confluent cell monolayer. HBSS with 10 mM HEPES at pH 7.4 was used as the transport buffer. Compounds were tested at 2 μM bi-directionally in duplicate. Digoxin, nadolol and metoprolol were included as standards. Digoxin was tested at 10 μM bi-directionally in duplicate, while nadolol and metoprolol were tested at 2 μM in the A to B direction in duplicate. The final DMSO concentration was adjusted to less than 1% for all experiments. The plate was incubated for 2 hours in a CO2 incubator at 37° C., with 5% CO2 at saturated humidity. After incubation, all wells were mixed with acetonitrile containing an internal standard, and the plate was centrifuged at 4,000 rpm for 10 minutes. 100 μL supernatant was collected from each well and diluted with 100 μL distilled water for LC/MS/MS analysis. Concentrations of test and control compounds in starting solution, donor solution, and receiver solution were quantified by LC/MS/MS, using peak area ratio of analyte/internal standard.
The apparent permeability coefficient Papp (cm/s) was calculated using the equation: Papp=(dCr/dt)×Vr/(A×C0), where dCr/dt is the cumulative concentration of compound in the receiver chamber as a function of time (μM/s); Vr is the solution volume in the receiver chamber (0.075 mL on the apical side, 0.25 mL on the basolateral side); A is the surface area for the transport, which is 0.0804 cm^2 for the area of the monolayer; and Co is the initial concentration in the donor chamber (μM). “A” represents a score of 1 or greater, “B” represents a score of 0.2 to 0.99, and “C” represents a score of less than 0.2.
The efflux ratio was calculated using the equation: Efflux Ratio=Papp(BA)/Papp(AB)
Percent recovery was calculated using the equation: % Recovery=100×[(Vr×Cr)+(Vd×Cd)]/(Vd×C0), where Vd is the volume in the donor chambers, which are 0.075 mL on the apical side and 0.25 mL on the basolateral side; and Cd and Cr are the final concentrations of transport compound in donor and receiver chambers, respectively. Measurement of Compound Metabolic Stability

[4] = Measurement of Compound Metabolic Stability in hepatocytes; type: in vitro ADME; details: mouse hepatocytes; for hepatocyte CLint at 1 μM: read-out: CLint (μL/min/10^6)
Protocol: The metabolic stability of compounds was determined in hepatocytes from human, mice and rats. Compounds were diluted to 5 μM in Williams' Medium E from 10 mM stock solutions. 10 μL of each compound was aliquoted into a well of a 96-well plate and reactions were started by aliquoting 40 μL of a 625,000 cells/mL suspension into each well. The plate was incubated at 37° C. with 5% CO2. At each corresponding time point, the reaction was stopped by quenching with ACN containing internal standards (IS) at a 1:3. Plates were shaken at 500 rpm for 10 min, and then centrifuged at 3,220×g for 20 minutes. Supernatants were transferred to another 96-well plate containing a dilution solution. Supernatants were analyzed by LC/MS/MS. The Half-lives (in minutes) and CLint values (in μL/min/10^6 cells) of example compounds, as measured in mouse hepatocytes, are presented in Table 3. […] For CLint, “A” represents greater than 100 μL/min/10^6 cells, “B” represents 50 to 100 μL/min/10^6 cells, and “C” represents less than 50 μL/min/10^6 cells.
The remaining percent of compound after incubation was calculated using the following equation: % Remaining Compound=Peak Area Ratios of Tested Compound vs. Internal Standard at End Point • Peak Area Ratios of Tested Compound vs. Internal Standard at Start Point Compound half-life and CLint were calculated using the following equations: Ct=C0*e^−k*t(first order kinetics); when […], t1/2=ln 2/k=0.693/k; and CLint=k/(1,000,000 cells/mL) Activity-Guided Selection of Inhibitors

[5] = Water solubility of mesylate salt; type: physicochemical; details: in water
Protocol: The freebase of Compound 15 was suspended in water, and methansulfonic acid was added (32 mg in 2 mL water). The resulting solution was gently heated and sonicated until a homogenous solution resulted, which was frozen and concentrated to dryness on the lyophilzer. The oily solid that resulted was re-dissolved in water, frozen and concentrated in the same manner to give a water soluble white solid (˜3 mg/mL). Further experiments were more easily conducted with this salt (32.0 mg, 91% yield over 2 steps).

T1 sequence (O14744 2-637 limits assumed): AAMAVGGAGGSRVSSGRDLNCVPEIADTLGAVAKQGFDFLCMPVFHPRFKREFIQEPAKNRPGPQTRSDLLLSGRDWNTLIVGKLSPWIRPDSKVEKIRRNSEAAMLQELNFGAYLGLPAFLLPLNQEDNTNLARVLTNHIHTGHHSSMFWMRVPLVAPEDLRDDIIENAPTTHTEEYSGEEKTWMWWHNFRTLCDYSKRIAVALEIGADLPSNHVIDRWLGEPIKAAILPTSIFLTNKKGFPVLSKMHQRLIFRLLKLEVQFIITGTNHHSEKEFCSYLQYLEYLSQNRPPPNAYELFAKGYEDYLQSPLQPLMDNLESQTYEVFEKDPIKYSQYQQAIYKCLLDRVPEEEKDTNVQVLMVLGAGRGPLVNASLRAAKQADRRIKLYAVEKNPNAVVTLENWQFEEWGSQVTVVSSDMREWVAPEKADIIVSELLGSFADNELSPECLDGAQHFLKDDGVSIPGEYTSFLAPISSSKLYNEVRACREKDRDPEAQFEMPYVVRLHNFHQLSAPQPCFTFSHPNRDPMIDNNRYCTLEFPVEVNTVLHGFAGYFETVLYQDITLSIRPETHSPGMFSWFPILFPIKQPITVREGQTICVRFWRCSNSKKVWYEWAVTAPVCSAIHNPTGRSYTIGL
T1 sequence (Q9BQA1 2-342 partner limits assumed): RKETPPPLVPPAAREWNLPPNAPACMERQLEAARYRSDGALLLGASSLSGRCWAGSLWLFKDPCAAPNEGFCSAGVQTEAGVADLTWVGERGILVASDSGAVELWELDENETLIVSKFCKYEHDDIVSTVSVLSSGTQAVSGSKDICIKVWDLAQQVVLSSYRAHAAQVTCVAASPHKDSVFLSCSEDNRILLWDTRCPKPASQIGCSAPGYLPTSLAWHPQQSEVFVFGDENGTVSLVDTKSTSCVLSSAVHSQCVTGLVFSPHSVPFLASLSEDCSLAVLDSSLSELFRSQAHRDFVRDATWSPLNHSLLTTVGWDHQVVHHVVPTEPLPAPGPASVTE

SMILES: Nc1nc2cc(C3C[C@@]4(CN3)C[C@@H](n3ccc5c(N)ncnc53)[C@H](O)[C@@H]4O)ccc2cc1Br (single isomer, unassigned) [Compound 8]
- IC50 (PRMT5): 101 to 500 nM
- AvgSens ME (%) [1]: C (a percent of maximum effect of 29% or lower)
- AvgRes ME (%) [2]: C (a percent of maximum effect of 29% or lower)
- Papp A→B at 2 h, 2 μM [3]: < 0.2 ×10⁻⁶ cm/s

SMILES: Nc1nc2cc([C@H]3C[C@@]4(CO3)C[C@@H](n3ccc5cncnc53)[C@H](O)[C@@H]4O)ccc2cc1Br [Compound 22]
- IC50 (PRMT5): ≤ 100 nM
- AvgSens ME (%) [1]: A (a percent of maximum effect of 60% or greater)
- AvgRes ME (%) [2]: B (a percent of maximum effect of 30% to 59%)
- Papp A→B at 2 h, 2 μM [3]: ≥ 1 ×10⁻⁶ cm/s
- half-life at 1 μM [4]: < 15 min
- hepatocyte CLint at 1 μM [4]: > 100 µL/min/1e6 cells

SMILES: Nc1nc2cc(C3C[C@@]4(CO3)C[C@@H](n3ccc5c(N)ncnc53)[C@H](O)[C@@H]4O)ccc2cc1Br (single isomer, unassigned) [Compound 15]
- IC50 (PRMT5): ≤ 100 nM
- AvgSens ME (%) [1]: A (a percent of maximum effect of 60% or greater)
- AvgRes ME (%) [2]: B (a percent of maximum effect of 30% to 59%)
- Papp A→B at 2 h, 2 μM [3]: < 0.2 ×10⁻⁶ cm/s
- half-life at 1 μM [4]: > 50 min
- hepatocyte CLint at 1 μM [4]: < 50 µL/min/1e6 cells
- solubility [5]: ~3000 µg/mL

SMILES: Nc1nc2cc(C3C[C@@]4(CO3)C[C@@H](n3ccc5c(Cl)ncnc53)[C@H](O)[C@@H]4O)ccc2cc1Br (stereo partly drawn) [Compound 17]
- IC50 (PRMT5): ≤ 100 nM
- AvgSens ME (%) [1]: A (a percent of maximum effect of 60% or greater)
- AvgRes ME (%) [2]: B (a percent of maximum effect of 30% to 59%)
- Papp A→B at 2 h, 2 μM [3]: 0.2 to 0.99 ×10⁻⁶ cm/s
- half-life at 1 μM [4]: 15 to 50 min
- hepatocyte CLint at 1 μM [4]: 50 to 100 µL/min/1e6 cells

SMILES: CNc1ncnc2c1ccn2[C@@H]1C[C@@]2(CO[C@@H](c3ccc4cc(Br)c(N)nc4c3)C2)[C@@H](O)[C@H]1O [Compound 23]
- IC50 (PRMT5): ≤ 100 nM
- AvgSens ME (%) [1]: A (a percent of maximum effect of 60% or greater)
- AvgRes ME (%) [2]: B (a percent of maximum effect of 30% to 59%)
- Papp A→B at 2 h, 2 μM [3]: 0.2 to 0.99 ×10⁻⁶ cm/s
- half-life at 1 μM [4]: > 50 min
- hepatocyte CLint at 1 μM [4]: < 50 µL/min/1e6 cells

SMILES: Cc1ncnc2c1ccn2[C@@H]1C[C@@]2(CO[C@@H](c3ccc4cc(Br)c(N)nc4c3)C2)[C@@H](O)[C@H]1O [Compound 19]
- IC50 (PRMT5): ≤ 100 nM
- AvgSens ME (%) [1]: A (a percent of maximum effect of 60% or greater)
- AvgRes ME (%) [2]: B (a percent of maximum effect of 30% to 59%)
- Papp A→B at 2 h, 2 μM [3]: ≥ 1 ×10⁻⁶ cm/s
- half-life at 1 μM [4]: > 50 min
- hepatocyte CLint at 1 μM [4]: < 50 µL/min/1e6 cells

SMILES: CCNc1ncnc2c1ccn2[C@@H]1C[C@@]2(CO[C@@H](c3ccc4cc(Br)c(N)nc4c3)C2)[C@@H](O)[C@H]1O [Compound 24]
- IC50 (PRMT5): ≤ 100 nM
- AvgSens ME (%) [1]: A (a percent of maximum effect of 60% or greater)
- AvgRes ME (%) [2]: B (a percent of maximum effect of 30% to 59%)
- Papp A→B at 2 h, 2 μM [3]: ≥ 1 ×10⁻⁶ cm/s
- half-life at 1 μM [4]: 15 to 50 min
- hepatocyte CLint at 1 μM [4]: 50 to 100 µL/min/1e6 cells

SMILES: Nc1nc2cc(C3C[C@@]4(CN3)C[C@@H](n3ccc5c(Cl)ncnc53)[C@H](O)[C@@H]4O)ccc2cc1Br (single isomer, unassigned) [Compound 9]
- IC50 (PRMT5): ≤ 100 nM
- AvgSens ME (%) [1]: B (a percent of maximum effect of 30% to 59%)
- AvgRes ME (%) [2]: C (a percent of maximum effect of 29% or lower)
- Papp A→B at 2 h, 2 μM [3]: < 0.2 ×10⁻⁶ cm/s

From patent US12583859B2, “PRMT5 inhibitors and uses thereof” (California Institute of Technology, priority 2019, dated 2026)
